Source: paper PMC12203311, “Design, synthesis, in silico and in vitro evaluation of pyrrole–indole hybrids as dual tubulin and aromatase inhibitors with potent anticancer activities” (RSC Advances, 2025)

Key:
[1] = target: T1, Human CYP19 (aromatase) (Homo sapiens, UniProt P11511); assay: Aromatase inhibition assay (DBF fluorometric substrate); format: biochemical; conditions: active defined as IC50 < 12.5 µM
T1 construct: purchased GENTEST, Woburn, MA 456260; host or cells: baculovirus/insect cells
T1 sequence (P11511 1-503): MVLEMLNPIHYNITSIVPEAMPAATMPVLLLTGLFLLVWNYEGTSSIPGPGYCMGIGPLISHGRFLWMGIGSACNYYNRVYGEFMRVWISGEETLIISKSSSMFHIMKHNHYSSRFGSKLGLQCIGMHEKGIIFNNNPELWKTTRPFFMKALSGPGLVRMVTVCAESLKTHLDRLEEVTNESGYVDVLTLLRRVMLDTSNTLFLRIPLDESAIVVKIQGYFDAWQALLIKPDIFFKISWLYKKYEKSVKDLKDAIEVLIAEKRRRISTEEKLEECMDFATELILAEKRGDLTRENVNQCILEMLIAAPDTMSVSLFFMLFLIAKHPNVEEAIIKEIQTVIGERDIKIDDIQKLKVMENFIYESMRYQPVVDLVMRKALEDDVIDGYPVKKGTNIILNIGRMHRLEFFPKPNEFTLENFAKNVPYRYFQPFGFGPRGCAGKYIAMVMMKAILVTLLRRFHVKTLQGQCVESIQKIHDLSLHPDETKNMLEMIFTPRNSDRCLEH
Protocol: Aromatase enzyme was purchased from GENTEST, Woburn, MA01801, USA (Supersom human CYP19+oxidoreductase, baculovirus/insect cell-expressed; Product No. 456260). The aromatase inhibitory activity was performed using Human CYP19 enzymes and DBF as a fluorometric substrate as described by Stresser, et al.[41] with minor modifications. The mixture, containing 100 µL of cofactor/serial dilution buffer was pre-incubated in 37 °C for 10 min. […] After incubation at 37 °C for 30 min, the reaction was stopped by addition of 50 µL of 2.2 M NaOH. Fluorescence signal was monitored using an excitation wavelength of 490 nm and emission wavelength of 530 nm.

[2] = system: T47D breast cancer cell line; assay: Cytotoxicity MTT assay, T47D; format: cell-based, human; conditions: for IC50: MTT, 48 hours; for activity against T47D in two-dose screen: 10 µM and 50 µM
Protocol: (§1) T47D (ATCC HTB-133) was purchased from Biomedia (Thailand) Co., LTD. L929 (ATCC CCL-1) was received as a gift from Prof. Tanapat Palaga, Department of Microbiology, Faculty of Science, Chulalongkorn University, Bangkok, Thailand. The cells were cultured in Dulbecco's Modified Eagle's Medium (DMEM; Gibco) supplemented with 10% fetal bovine serum (FBS; HyClone), 100 U mL^−1 penicillin and 100 µg mL^−1 streptomycin (Gibco) at 37 °C with 5% CO2.
(§2) The antiproliferative activity was determined by MTT assay. Briefly, the cells were plated into a 96-well microplate at the density of 10 000 cells per well. The cells were allowed to grow overnight before treated with the solutions of compounds in culture medium at the designated concentrations for 48 hours. The medium was then replaced with MTT solution (0.5 mg mL^−1 MTT in culture medium) and incubated for 3 hours. A 100 µL of DMSO was used to dissolve the produced formazan. Absorbance at 570 nm was then measured using a microplate reader (Varioskan™ LUX multimode microplate reader, Thermo Scientific™). Percent viability was calculated relative to the vehicle control (DMSO).

[3] = system: L929 normal mouse fibroblast cell line; assay: Cytotoxicity MTT assay, L929; format: cell-based; conditions: IC50 (L929)/IC50 (T47D)
Protocol: as §1, §2

[4] = Cytotoxicity MTT assay, L929; format: cell-based, mouse; conditions: mouse, L929 fibroblast cells; MTT, 48 hours
Protocol: as §1, §2

[5] = system: NCI60 human cell line panel; assay: NCI60 one-dose screen; format: cell-based; conditions: 10 µM single dose
Protocol: The one-dose experimental protocol followed the method described in this literature.[28] First, all compounds were tested at a single concentration (10 µM) across the entire NCI60 panel. The results of this assay indicate the growth relative to no-drug control and the number of cells at time zero. This method allows for the detection of growth inhibition (values between 0 to 100) and lethality (value below 0).

For `O=C(N/N=C/c1ccco1)c1[nH]c2ccc(Br)cc2c1-c1ccccc1` [Derivative 1a, reference compound], which IC50 [1] is on record?
The IC50 was 11.3 ± 1.7 µM.

With `CCOC(=O)c1cc[nH]c1/C=N/NC(=O)c1[nH]c2ccc(Br)cc2c1-c1ccccc1` [Derivative 3k, Ethyl (E)-2-((2-(5-bromo-3-phenyl-1H-indole-2-carbonyl)hydrazono)methyl)-1H-pyrrole-3-carboxylate] as the compound, how does the IC50 ([2]; Homo sapiens, T47D) read?
Its IC50 is 10.6 ± 1.1 µM.

What about the “Selectivity index (SI)” value [3] of the same compound?
The value was 1.42.

What about the IC50 at 48 h [4] of the same compound?
The IC50 at 48 h was 15 ± 8.9 µM.

What about the IC50 [1] of the same compound?
Its IC50 is 0.018 ± 0.002 µM.

What about the “NCI mean (mean growth percentage over the panel)” value [5] of the same compound?
Its value is 49%.

Which “activity against T47D in two-dose screen” value [2] does the source give for `O=C(O)c1cc(/C=N/NC(=O)c2[nH]c3ccc(Br)cc3c2-c2ccccc2)c[nH]1` [Derivative 3w, (E)-4-((2-(5-Bromo-3-phenyl-1H-indole-2-carbonyl)hydrazono)methyl)-1H-pyrrole-2-carboxylic acid] here?
Its value is “weak activity”.

And the IC50 [1]?
Its IC50 is > 12.5 µM.

What about the “aromatase inhibition” value [1] of the same compound?
Its value is “inactive against aromatase”.

For `O=C(N/N=C/c1cccs1)c1[nH]c2ccc(Br)cc2c1-c1ccccc1` [Derivative 2a, reference compound], which IC50 [1] is on record?
The IC50 was > 12.5 µM.

And the “aromatase inhibition” value [1]?
Its value is “lacked aromatase inhibition”.

With `O=C(N/N=C/c1c[nH]c(C(=O)N2CCOCC2)c1)c1[nH]c2ccc(Br)cc2c1-c1ccccc1` [Derivative 3x, (E)-5-Bromo-N′-((5-(morpholine-4-carbonyl)-1H-pyrrol-3-yl)methylene)-3-phenyl-1H-indole-2-carbohydrazide] as the compound, how does the “activity against T47D in two-dose screen” value [2] read?
The value was “weak activity”.

What about the IC50 [1] of the same compound?
The IC50 was 3.7 ± 0.6 µM.

For `O=C(O)c1ccc(/C=N/NC(=O)c2[nH]c3ccc(Br)cc3c2-c2ccccc2)[nH]1` [Derivative 3l, (E)-5-((2-(5-Bromo-3-phenyl-1H-indole-2-carbonyl)hydrazono)methyl)-1H-pyrrole-2-carboxylic acid], which “activity against T47D in two-dose screen” value [2] is on record?
Its value is “weak activity”.

What about the IC50 [1] of the same compound?
The IC50 was > 12.5 µM.

What about the “aromatase inhibition” value [1] of the same compound?
Its value is “inactive against aromatase”.

And the “growth inhibition in the single dose experiment” value [5]?
Its value is “mild effects”.

With `O=C(O)c1c[nH]c(/C=N/NC(=O)c2[nH]c3ccc(Br)cc3c2-c2ccccc2)c1` [Derivative 3m, (E)-5-((2-(5-Bromo-3-phenyl-1H-indole-2-carbonyl)hydrazono)methyl)-1H-pyrrole-3-carboxylic acid] as the compound, how does the “activity against T47D in two-dose screen” value [2] read?
Its value is “weak activity”.

What about the IC50 [1] of the same compound?
Its IC50 is > 12.5 µM.

And the “aromatase inhibition” value [1]?
The value was “inactive against aromatase”.

What about the “growth inhibition in the single dose experiment” value [5] of the same compound?
Its value is “mild effects”.

For `N.N.[Cl][Pt][Cl]` [Cisplatin, reference compound], which IC50 [2] is on record?
Its IC50 is > 100 µM.

Which results are given for `O=C(N/N=C/c1cc(C(=O)N2CCOCC2)c[nH]1)c1[nH]c2ccc(Br)cc2c1-c1ccccc1` [Derivative 3o, (E)-5-Bromo-N′-((4-(morpholine-4-carbonyl)-1H-pyrrol-2-yl)methylene)-3-phenyl-1H-indole-2-carbohydrazide]?
IC50 ([2]; Homo sapiens, T47D): 14.9 ± 1 µM; IC50 at 48 h [4]: 43.2 ± 9.9 µM; IC50 [1]: 1.6 ± 0.4 µM; NCI mean (mean growth percentage over the panel) [5]: 45%
